Source: ChEMBL document CHEMBL1201862, “PubChem BioAssay data set” (2004)
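Following 48 hours of exposure in 96-well plates, responses at five concentrations were used to interpolate endpoints linearly. GI50 = concentration required for 50% inhibition of growth.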 Active and inactive are the calls of the source. Rule as the data show it: active = GI50 up to about 1.1 µM and inactive = higher.

Legend:
Experiment in all cases: NCI-60 cell line screen, 48 h
A549 = test system: A549
ACHN = test system: ACHN
BT-549 = test system: BT-549
CAKI-1 = test system: CAKI-1
COLO 205 = test system: COLO 205
HCT-15 = test system: HCT-15
HT-29 = test system: HT-29
KM12 = test system: KM12
M14 = test system: M14
NCI-H226 = test system: NCI-H226
NCI-H522 = test system: NCI-H522
OVCAR-8 = test system: OVCAR-8
PC-3 = test system: PC-3
SF-295 = test system: SF-295
SK-MEL-5 = test system: SK-MEL-5
SN12C = test system: SN12C
SNB-75 = test system: SNB-75
SW-620 = test system: SW-620
U-251 = test system: U-251
UACC-62 = test system: UACC-62

Row | SMILES | GI50 (A549) | GI50 (ACHN) | GI50 (BT-549) | GI50 (CAKI-1) | GI50 (COLO 205) | GI50 (HCT-15) [µM] | GI50 (HT-29) | GI50 (KM12) | GI50 (M14) | GI50 (NCI-H226) | GI50 (NCI-H522) | GI50 (OVCAR-8) | GI50 (PC-3) | GI50 (SF-295) | GI50 (SK-MEL-5) | GI50 (SN12C) | GI50 (SNB-75) | GI50 (SW-620) | GI50 (U-251) | GI50 (UACC-62)
1 | CN(CCC(=O)O)S(=O)(=O)c1ccccc1 | > 100 µM (inactive) | > 100 µM (inactive) | > 100 µM (inactive) | > 100 µM (inactive) | > 100 µM (inactive) | > 100 | > 100 µM (inactive) | > 100 µM (inactive) | > 100 µM (inactive) | > 100 µM (inactive) | > 100 µM (inactive) | > 100 µM (inactive) | > 100 µM (inactive) | > 100 µM (inactive) | > 100 µM (inactive) | > 100 µM (inactive) | 80.2 µM (inactive) | > 100 µM (inactive) | > 100 µM (inactive) | > 100 µM (inactive)
2 | CC(=O)CC1=C(OC(C)C)C2(OCCO2)C1O (stereo not given) | > 100 µM (inactive) | > 100 µM (inactive) | > 100 µM (inactive) | > 100 µM (inactive) | > 100 µM (inactive) | > 100 | > 100 µM (inactive) | > 100 µM (inactive) | > 100 µM (inactive) | > 100 µM (inactive) | > 100 µM (inactive) | > 100 µM (inactive) | > 100 µM (inactive) | > 100 µM (inactive) | > 100 µM (inactive) | > 100 µM (inactive) | > 100 µM (inactive) | > 100 µM (inactive) | > 100 µM (inactive) | > 100 µM (inactive)
3 | CN(C)c1ccc(/C=C/C(=O)N[C@@H]2C(=O)N3[C@@H]2SC(C)(C)[C@@H]3C(=O)O)cc1 | > 100 µM (inactive) | > 100 µM (inactive) | > 100 µM (inactive) | > 100 µM (inactive) | > 100 µM (inactive) | > 100 | > 100 µM (inactive) | > 100 µM (inactive) | > 100 µM (inactive) | > 100 µM (inactive) | > 100 µM (inactive) | > 100 µM (inactive) | > 100 µM (inactive) | > 100 µM (inactive) | > 100 µM (inactive) | > 100 µM (inactive) | > 100 µM (inactive) | > 100 µM (inactive) | > 100 µM (inactive) | > 100 µM (inactive)
4 | CC(=O)N1N=C(c2ccc3ccccc3c2O)CC1c1ccc(Cl)cc1Cl (stereo not given) | 25.1 µM (inactive) | 29.6 µM (inactive) | > 100 µM (inactive) | 22.6 µM (inactive) | 28.3 µM (inactive) | 56.9 | 28.7 µM (inactive) | 46.2 µM (inactive) | 27.2 µM (inactive) | 44.6 µM (inactive) | 25.7 µM (inactive) | 59 µM (inactive) | 17.1 µM (inactive) | 31.6 µM (inactive) | 33.7 µM (inactive) | 19.6 µM (inactive) | > 100 µM (inactive) | 26.9 µM (inactive) | 18.3 µM (inactive) | > 100 µM (inactive)
5 | COc1cc(O)c2c(=O)cc(C3(OC(C)=O)C=CC(OC4OC(CO)C(O)C(O)C4O)C=C3)oc2c1 (stereo not given) | > 100 µM (inactive) | > 100 µM (inactive) | > 100 µM (inactive) | > 100 µM (inactive) | > 100 µM (inactive) | > 100 | > 100 µM (inactive) | > 100 µM (inactive) | > 100 µM (inactive) | > 100 µM (inactive) | > 100 µM (inactive) | > 100 µM (inactive) | > 100 µM (inactive) | > 100 µM (inactive) | > 100 µM (inactive) | > 100 µM (inactive) | > 100 µM (inactive) | > 100 µM (inactive) | > 100 µM (inactive) | > 100 µM (inactive)
6 | CCC(C)C1NC(=O)C(NC(=O)C(CC(C)C)N(C)C(=O)[C@@H]2C=CCN2C(=O)[C@H](C)O)C(C)OC(=O)[C@H](Cc2ccc(OC)cc2)N(C)C(=O)[C@@H]2CCCN2C(=O)[C@H](CC(C)C)NC(=O)C(C)C(=O)[C@H](C(C)C)OC(=O)CC1O (stereo not given in full) | 0.004 µM (active) | 0.00402 µM (active) | 0.00365 µM (active) | 0.00984 µM (active) | 0.00143 µM (active) | 0.0239 | 0.00252 µM (active) | < 0.01 µM (active) | 0.00188 µM (active) | < 0.01 µM (active) | 0.00111 µM (active) | 0.00467 µM (active) | 0.00291 µM (active) | 0.00248 µM (active) | 0.000914 µM (active) | 0.00279 µM (active) | 0.00198 µM (active) | 0.00308 µM (active) | 0.00131 µM (active) | 0.00119 µM (active)
7 | NC(Cc1ccccc1)c1nccs1 (stereo not given) | > 100 µM (inactive) | > 100 µM (inactive) | > 100 µM (inactive) | > 100 µM (inactive) | > 100 µM (inactive) | > 100 | > 100 µM (inactive) | > 100 µM (inactive) | > 100 µM (inactive) | > 100 µM (inactive) | > 100 µM (inactive) | > 100 µM (inactive) | > 100 µM (inactive) | > 100 µM (inactive) | > 100 µM (inactive) | > 100 µM (inactive) | > 100 µM (inactive) | > 100 µM (inactive) | > 100 µM (inactive) | > 100 µM (inactive)
8 | Nc1ccnc2c1ncn2[C@H]1C[C@H](O)[C@@H](CO)O1 | > 100 µM (inactive) | > 100 µM (inactive) | > 100 µM (inactive) | > 100 µM (inactive) | > 100 µM (inactive) | > 100 | > 100 µM (inactive) | > 100 µM (inactive) | > 100 µM (inactive) | > 100 µM (inactive) | > 100 µM (inactive) | > 100 µM (inactive) | > 100 µM (inactive) | > 100 µM (inactive) | > 100 µM (inactive) | > 100 µM (inactive) | > 100 µM (inactive) | > 100 µM (inactive) | > 100 µM (inactive) | > 100 µM (inactive)
9 | CCN1C[C@]2(COC)[C@H](O)C[C@H](OC)[C@]34C1[C@H]([C@H](OC)[C@H]23)[C@]1(OC(C)=O)[C@H]2[C@@H](OC(=O)c3ccccc3)[C@](O)(C[C@H]24)[C@@H](OC)[C@@H]1O | > 100 µM (inactive) | > 100 µM (inactive) | > 100 µM (inactive) | > 100 µM (inactive) | > 100 µM (inactive) | > 100 | > 100 µM (inactive) | > 100 µM (inactive) | > 100 µM (inactive) | > 100 µM (inactive) | > 100 µM (inactive) | > 100 µM (inactive) | > 100 µM (inactive) | > 100 µM (inactive) | > 100 µM (inactive) | > 100 µM (inactive) | 31.1 µM (inactive) | > 100 µM (inactive) | > 100 µM (inactive) | > 100 µM (inactive)
10 | COc1ccc2oc(=O)c(-c3nc4ccccc4s3)cc2c1 | 19.9 µM (inactive) | 5.55 µM (inactive) | > 63.7 µM (inactive) | 18.5 µM (inactive) | 54.1 µM (inactive) | > 79.6 | 13.6 µM (inactive) | > 55.3 µM (inactive) | 22.7 µM (inactive) | 19.2 µM (inactive) | 29.4 µM (inactive) | 14.9 µM (inactive) | 63.8 µM (inactive) | 21.5 µM (inactive) | 33.5 µM (inactive) | 33.4 µM (inactive) | 8.65 µM (inactive) | 32.6 µM (inactive) | 15 µM (inactive) | 43.5 µM (inactive)
11 | O=C(O)c1cc(CCc2ccc(O)c(O)c2)ccc1O | > 100 µM (inactive) | > 100 µM (inactive) | > 100 µM (inactive) | > 100 µM (inactive) | > 100 µM (inactive) | > 100 | > 100 µM (inactive) | > 100 µM (inactive) | > 100 µM (inactive) | > 100 µM (inactive) | > 100 µM (inactive) | > 100 µM (inactive) | > 100 µM (inactive) | > 100 µM (inactive) | > 100 µM (inactive) | > 100 µM (inactive) | > 100 µM (inactive) | > 100 µM (inactive) | > 100 µM (inactive) | > 100 µM (inactive)
12 | CCc1n[nH]c(=O)n1-n1c(C)ccc1C | > 100 µM (inactive) | > 100 µM (inactive) | > 100 µM (inactive) | > 100 µM (inactive) | > 100 µM (inactive) | > 100 | > 100 µM (inactive) | > 100 µM (inactive) | > 100 µM (inactive) | > 100 µM (inactive) | > 100 µM (inactive) | > 100 µM (inactive) | > 100 µM (inactive) | > 100 µM (inactive) | > 100 µM (inactive) | > 100 µM (inactive) | > 100 µM (inactive) | > 100 µM (inactive) | > 100 µM (inactive) | > 100 µM (inactive)
13 | C=C[C@]1(C)C[C@@H](OC(=O)CO)[C@@]2(C)[C@H](C)CC[C@]3(CCC(=O)[C@H]32)[C@@H](C)[C@@H]1O | > 100 µM (inactive) | > 93.5 µM (inactive) | > 61.4 µM (inactive) | > 100 µM (inactive) | > 100 µM (inactive) | > 94.8 | > 100 µM (inactive) | > 100 µM (inactive) | > 78.9 µM (inactive) | > 100 µM (inactive) | 67.9 µM (inactive) | > 100 µM (inactive) | > 55.2 µM (inactive) | > 76.4 µM (inactive) | > 89.5 µM (inactive) | > 100 µM (inactive) | > 74 µM (inactive) | > 82.2 µM (inactive) | > 79.3 µM (inactive) | 7.59 µM (inactive)
14 | CC(C#N)N(CCc1ccccc1)C(=O)c1ccccc1 (stereo not given) | > 100 µM (inactive) | > 100 µM (inactive) | > 100 µM (inactive) | > 100 µM (inactive) | > 100 µM (inactive) | > 100 | > 100 µM (inactive) | > 100 µM (inactive) | > 100 µM (inactive) | > 100 µM (inactive) | > 100 µM (inactive) | > 100 µM (inactive) | > 100 µM (inactive) | > 100 µM (inactive) | > 100 µM (inactive) | > 100 µM (inactive) | 27.4 µM (inactive) | > 100 µM (inactive) | > 100 µM (inactive) | > 100 µM (inactive)
